Data on seven molecules can be found in article PMC6199744, “Development of Chemical Proteomics for the Folateome and Analysis of the Kinetoplastid Folateome” (ACS Infectious Diseases, 2018).

Where two headings read alike, the source gives them in different places.

Holding throughout (assay type): binding
The target in assay [1] is T1, HeLa cell extract proteins (Homo sapiens, UniProt Q13616).
T1 construct: endogenous in cells; host or cells: HeLa cell extract

Assay [2] deals with T2, HeLa cell extract proteins (Homo sapiens, UniProt P49736).
T2 construct: endogenous in cells; host or cells: HeLa cell extract

For assay [3], the target named is T3, HeLa cell extract proteins (Homo sapiens, UniProt Q9UNM6).
T3 construct: endogenous in cells; host or cells: HeLa cell extract
T3 sequence (Q9UNM6 1-376): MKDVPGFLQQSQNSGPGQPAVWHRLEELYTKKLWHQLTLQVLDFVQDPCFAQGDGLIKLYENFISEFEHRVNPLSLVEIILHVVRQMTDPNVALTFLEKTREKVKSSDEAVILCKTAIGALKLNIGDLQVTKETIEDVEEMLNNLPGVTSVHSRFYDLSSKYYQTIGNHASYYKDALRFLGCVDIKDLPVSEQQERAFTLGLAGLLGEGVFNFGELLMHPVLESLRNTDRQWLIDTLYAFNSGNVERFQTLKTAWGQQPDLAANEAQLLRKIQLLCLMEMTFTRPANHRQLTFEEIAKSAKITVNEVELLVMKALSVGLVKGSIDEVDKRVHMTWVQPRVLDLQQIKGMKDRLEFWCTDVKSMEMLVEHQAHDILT

Assay [4] concerns the target T4, HeLa cell extract proteins (Homo sapiens, UniProt Q15020).
T4 construct: endogenous in cells; host or cells: HeLa cell extract
T4 sequence (Q15020 1-963): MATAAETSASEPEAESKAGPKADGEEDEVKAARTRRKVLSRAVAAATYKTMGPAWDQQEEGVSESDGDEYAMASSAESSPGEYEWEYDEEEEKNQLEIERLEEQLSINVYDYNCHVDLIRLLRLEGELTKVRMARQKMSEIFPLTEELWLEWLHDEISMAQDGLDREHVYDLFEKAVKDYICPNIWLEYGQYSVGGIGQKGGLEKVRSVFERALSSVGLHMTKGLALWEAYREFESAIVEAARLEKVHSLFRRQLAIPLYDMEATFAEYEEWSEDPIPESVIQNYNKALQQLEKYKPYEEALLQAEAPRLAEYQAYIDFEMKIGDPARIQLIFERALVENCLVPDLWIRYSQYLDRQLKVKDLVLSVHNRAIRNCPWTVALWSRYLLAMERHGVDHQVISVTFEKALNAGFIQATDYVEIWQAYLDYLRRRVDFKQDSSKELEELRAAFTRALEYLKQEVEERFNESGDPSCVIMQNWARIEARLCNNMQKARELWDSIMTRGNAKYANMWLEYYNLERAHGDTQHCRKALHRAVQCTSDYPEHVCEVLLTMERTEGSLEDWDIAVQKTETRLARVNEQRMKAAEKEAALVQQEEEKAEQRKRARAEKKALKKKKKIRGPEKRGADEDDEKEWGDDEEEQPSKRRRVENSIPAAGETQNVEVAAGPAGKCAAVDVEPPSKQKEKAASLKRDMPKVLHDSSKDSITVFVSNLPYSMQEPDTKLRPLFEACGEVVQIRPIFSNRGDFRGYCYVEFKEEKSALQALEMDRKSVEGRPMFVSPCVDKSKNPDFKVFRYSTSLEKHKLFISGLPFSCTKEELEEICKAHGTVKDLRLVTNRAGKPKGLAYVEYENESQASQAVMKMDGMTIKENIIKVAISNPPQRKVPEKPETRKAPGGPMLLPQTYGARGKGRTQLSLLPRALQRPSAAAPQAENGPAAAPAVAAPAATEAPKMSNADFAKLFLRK

In assay [5] the target is T5, HeLa cell extract proteins (Homo sapiens, UniProt Q9NWZ8).
T5 construct: endogenous in cells; host or cells: HeLa cell extract
T5 sequence (Q9NWZ8 1-242): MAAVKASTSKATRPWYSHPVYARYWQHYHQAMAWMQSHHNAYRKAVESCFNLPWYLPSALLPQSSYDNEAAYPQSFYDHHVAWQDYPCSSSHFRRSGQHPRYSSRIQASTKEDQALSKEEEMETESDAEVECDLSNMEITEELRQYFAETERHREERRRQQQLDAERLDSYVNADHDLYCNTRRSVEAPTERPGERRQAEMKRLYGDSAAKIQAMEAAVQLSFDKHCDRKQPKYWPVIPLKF

Assay [6] concerns the target T6, HeLa cell extract proteins (Homo sapiens, UniProt P13804).
T6 construct: endogenous in cells; host or cells: HeLa cell extract
T6 sequence (P13804 20-333): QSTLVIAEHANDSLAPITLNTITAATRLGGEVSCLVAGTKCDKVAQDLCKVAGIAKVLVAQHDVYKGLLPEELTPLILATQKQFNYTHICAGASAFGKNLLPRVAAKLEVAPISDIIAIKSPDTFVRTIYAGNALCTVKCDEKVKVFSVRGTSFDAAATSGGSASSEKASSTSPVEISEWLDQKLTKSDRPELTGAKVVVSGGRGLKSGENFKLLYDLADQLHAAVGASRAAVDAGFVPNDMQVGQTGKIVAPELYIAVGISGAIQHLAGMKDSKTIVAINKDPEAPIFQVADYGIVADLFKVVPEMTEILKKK

Assay [7] has as its target T7, HeLa cell extract proteins (Homo sapiens, UniProt O95347).
T7 construct: endogenous in cells; host or cells: HeLa cell extract
The note with it: protein SMC2; HeLa.

Assay [8] concerns the target T8, HeLa cell extract proteins (Homo sapiens, UniProt Q9Y5M8).
T8 construct: endogenous in cells; host or cells: HeLa cell extract
T8 sequence (Q9Y5M8 1-271): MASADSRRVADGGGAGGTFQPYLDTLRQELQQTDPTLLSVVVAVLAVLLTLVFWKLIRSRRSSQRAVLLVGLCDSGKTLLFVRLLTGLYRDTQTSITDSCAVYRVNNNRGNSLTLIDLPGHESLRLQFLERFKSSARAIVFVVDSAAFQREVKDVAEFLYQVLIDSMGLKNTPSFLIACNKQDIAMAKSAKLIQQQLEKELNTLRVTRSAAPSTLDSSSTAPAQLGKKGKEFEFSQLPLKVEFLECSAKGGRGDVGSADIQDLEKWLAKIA
As to conditions: captured protein SRPRB; HeLa.

Assay [9] deals with T9, HeLa cell extract proteins (Homo sapiens, UniProt P26368).
T9 construct: endogenous in cells; host or cells: HeLa cell extract
As to conditions: protein U2AF2; HeLa.

Assay [10] deals with T10, HeLa cell extract proteins (Homo sapiens, UniProt P55884).
T10 construct: endogenous in cells; host or cells: HeLa cell extract
The note with it: protein EIF3B; HeLa.

T2 sequence (P49736 whole entry): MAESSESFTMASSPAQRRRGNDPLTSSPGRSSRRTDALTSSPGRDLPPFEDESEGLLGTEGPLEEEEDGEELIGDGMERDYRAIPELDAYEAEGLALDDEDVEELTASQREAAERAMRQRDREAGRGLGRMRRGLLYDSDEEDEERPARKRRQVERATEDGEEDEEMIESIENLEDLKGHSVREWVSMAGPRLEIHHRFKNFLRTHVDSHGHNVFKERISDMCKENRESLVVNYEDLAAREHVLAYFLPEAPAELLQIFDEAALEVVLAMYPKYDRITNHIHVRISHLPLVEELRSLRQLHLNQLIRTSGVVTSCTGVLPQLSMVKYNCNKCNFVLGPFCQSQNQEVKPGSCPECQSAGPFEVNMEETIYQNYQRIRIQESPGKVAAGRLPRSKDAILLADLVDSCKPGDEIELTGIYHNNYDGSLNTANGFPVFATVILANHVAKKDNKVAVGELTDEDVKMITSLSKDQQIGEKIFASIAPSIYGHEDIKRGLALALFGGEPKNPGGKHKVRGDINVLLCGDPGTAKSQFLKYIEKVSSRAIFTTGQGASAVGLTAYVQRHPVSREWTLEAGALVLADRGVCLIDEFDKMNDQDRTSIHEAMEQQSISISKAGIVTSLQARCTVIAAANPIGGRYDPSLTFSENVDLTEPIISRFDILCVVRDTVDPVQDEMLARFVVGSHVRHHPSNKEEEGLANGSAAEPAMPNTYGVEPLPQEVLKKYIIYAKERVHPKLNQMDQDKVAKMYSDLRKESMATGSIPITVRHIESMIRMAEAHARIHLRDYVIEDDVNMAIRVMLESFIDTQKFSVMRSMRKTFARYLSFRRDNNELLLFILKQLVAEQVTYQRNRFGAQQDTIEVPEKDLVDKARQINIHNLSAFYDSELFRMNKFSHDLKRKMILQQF
T7 sequence (O95347 whole entry): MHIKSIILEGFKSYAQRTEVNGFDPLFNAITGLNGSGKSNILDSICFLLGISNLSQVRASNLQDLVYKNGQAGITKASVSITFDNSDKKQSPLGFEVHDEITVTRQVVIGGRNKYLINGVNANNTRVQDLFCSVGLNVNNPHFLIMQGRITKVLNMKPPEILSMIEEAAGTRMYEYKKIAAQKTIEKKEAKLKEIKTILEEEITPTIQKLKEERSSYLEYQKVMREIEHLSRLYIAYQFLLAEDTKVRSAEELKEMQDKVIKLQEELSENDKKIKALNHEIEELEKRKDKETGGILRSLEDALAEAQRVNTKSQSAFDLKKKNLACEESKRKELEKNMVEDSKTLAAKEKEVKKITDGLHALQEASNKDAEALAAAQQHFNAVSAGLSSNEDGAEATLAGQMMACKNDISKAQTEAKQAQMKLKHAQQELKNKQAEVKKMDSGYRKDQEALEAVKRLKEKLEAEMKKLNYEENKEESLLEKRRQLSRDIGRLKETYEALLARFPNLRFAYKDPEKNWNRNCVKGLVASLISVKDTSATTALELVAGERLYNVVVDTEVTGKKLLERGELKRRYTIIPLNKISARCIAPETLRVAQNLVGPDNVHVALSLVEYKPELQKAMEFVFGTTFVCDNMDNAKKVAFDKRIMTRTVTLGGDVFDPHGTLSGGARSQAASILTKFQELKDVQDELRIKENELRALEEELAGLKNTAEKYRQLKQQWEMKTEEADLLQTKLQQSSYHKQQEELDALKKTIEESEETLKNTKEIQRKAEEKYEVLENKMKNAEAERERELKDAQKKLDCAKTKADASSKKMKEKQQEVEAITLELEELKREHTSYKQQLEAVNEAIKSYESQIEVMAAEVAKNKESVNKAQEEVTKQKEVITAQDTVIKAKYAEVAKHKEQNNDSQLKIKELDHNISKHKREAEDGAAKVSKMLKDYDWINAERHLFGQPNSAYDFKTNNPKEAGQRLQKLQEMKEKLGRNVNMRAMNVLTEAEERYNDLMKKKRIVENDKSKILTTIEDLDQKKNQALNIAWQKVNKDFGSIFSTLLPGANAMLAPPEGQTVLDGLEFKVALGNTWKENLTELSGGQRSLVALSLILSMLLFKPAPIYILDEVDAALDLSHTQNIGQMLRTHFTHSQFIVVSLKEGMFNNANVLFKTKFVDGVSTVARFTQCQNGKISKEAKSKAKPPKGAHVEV
T10 sequence (P55884 whole entry): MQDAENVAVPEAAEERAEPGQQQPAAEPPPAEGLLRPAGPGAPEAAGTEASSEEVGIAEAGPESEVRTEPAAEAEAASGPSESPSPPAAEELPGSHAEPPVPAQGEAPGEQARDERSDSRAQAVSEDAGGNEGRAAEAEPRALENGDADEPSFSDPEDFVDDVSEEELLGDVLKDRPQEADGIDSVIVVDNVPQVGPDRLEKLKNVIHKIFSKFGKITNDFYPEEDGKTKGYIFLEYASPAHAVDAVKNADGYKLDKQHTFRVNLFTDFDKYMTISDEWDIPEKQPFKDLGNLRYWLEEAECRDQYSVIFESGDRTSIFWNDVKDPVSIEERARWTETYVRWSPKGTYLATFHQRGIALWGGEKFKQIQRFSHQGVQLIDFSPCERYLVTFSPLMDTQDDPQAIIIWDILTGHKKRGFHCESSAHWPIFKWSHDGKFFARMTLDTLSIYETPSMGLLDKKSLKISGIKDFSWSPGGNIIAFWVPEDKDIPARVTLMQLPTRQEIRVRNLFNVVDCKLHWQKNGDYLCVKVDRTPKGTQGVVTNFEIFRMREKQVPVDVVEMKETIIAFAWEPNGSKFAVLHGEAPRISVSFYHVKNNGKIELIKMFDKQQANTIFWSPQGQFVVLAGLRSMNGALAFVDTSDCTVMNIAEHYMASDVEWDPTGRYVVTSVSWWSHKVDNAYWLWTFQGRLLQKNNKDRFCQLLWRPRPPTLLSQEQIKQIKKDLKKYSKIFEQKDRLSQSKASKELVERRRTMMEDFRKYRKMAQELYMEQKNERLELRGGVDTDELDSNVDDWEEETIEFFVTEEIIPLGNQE
T9 sequence (P26368 whole entry): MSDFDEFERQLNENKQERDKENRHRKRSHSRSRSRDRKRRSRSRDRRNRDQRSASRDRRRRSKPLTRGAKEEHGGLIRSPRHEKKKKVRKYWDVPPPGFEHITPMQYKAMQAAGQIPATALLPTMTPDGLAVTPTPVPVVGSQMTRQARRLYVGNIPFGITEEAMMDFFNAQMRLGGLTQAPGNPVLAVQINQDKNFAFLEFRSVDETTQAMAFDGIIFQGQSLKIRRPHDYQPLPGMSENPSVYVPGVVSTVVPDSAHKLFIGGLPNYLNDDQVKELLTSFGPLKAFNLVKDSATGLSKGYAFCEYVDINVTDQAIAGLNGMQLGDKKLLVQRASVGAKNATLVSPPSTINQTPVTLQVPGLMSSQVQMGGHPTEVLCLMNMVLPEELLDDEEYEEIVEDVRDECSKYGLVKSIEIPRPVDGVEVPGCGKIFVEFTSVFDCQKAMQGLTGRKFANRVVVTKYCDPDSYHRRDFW
T1 sequence (Q13616 whole entry): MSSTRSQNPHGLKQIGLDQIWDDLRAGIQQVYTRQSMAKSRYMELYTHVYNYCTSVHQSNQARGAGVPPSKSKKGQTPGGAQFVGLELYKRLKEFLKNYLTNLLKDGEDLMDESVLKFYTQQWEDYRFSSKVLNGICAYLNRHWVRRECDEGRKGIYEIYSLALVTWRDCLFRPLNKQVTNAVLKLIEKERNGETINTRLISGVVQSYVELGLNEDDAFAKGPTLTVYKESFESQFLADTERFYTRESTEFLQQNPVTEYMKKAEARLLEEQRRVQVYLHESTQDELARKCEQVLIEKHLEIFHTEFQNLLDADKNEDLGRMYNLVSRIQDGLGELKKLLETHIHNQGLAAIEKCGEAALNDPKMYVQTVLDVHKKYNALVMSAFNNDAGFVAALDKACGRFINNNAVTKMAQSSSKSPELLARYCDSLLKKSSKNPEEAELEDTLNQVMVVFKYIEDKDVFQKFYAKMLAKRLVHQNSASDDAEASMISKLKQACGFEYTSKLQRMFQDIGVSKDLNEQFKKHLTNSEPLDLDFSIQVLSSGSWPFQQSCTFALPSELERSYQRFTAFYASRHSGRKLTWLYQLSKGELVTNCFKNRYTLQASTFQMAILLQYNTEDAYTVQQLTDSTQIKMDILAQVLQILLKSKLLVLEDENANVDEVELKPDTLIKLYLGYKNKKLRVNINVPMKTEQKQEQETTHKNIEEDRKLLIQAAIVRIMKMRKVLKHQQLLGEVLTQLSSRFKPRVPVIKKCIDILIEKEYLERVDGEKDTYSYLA

As for `Nc1nc2c(c(=O)[nH]1)N(C=O)C(CNc1ccc(C(=O)N[C@@H](CCC(=O)O)C(=O)O)cc1)CN2` (stereo partly drawn) [LEU, leucovorin], the “fold changes relative to vehicle control” value in assay [1] (HeLa, protein CUL1) is recorded as 0.98; in assay [2] (HeLa, protein MCM2) it was 1.06; in assay [3] (protein PSMD13, HeLa), 0.95; in assay [4] (protein SART3, HeLa) it was 0.82; in assay [5] (HeLa, protein GEMIN8) it was 0.97; in assay [6] (protein ETFA, HeLa), 0.77.
Consider `Nc1nc2[nH]cc(CCc3ccc(C(=O)N[C@@H](CCC(=O)O)C(=O)O)cc3)c2c(=O)[nH]1` [PTX, pemetrexed], for which the “fold changes relative to vehicle control” value in assay [1] was found to be 1.03; in assay [2] it was 1.05; in assay [3], 0.88; in [4], 0.84; in [5], 0.97; in assay [6], 0.73.
Regarding `CCCCCCOc1ccc(Cc2cnc(N)nc2N)cc1` [compound 1], the “fold changes relative to vehicle control” value in [7] is recorded as 1.4; in assay [8], 1.12; in assay [9] it was 1.12; in assay [10] it was 0.99.
`CCCCCCOc1cccc(Cc2cnc(N)nc2N)c1` [compound 2]: the “fold changes relative to vehicle control” value in [7] is recorded as 1.36; in assay [8] it was 1.08; in assay [9], 1.36; in [10], 1.68.
As for `Nc1nc2cccc(-c3ccccc3)c2n1Cc1ccc(Cl)c(Cl)c1` [compound 3], the “fold changes relative to vehicle control” value stood at 1.11 in assay [7], 0.91 in assay [8], 0.93 in assay [9] and 1.2 in assay [10].
As for `NCCOCCOCC(=O)Nc1nc2ncc(CNc3ccc(C(=O)NC(CCC(=O)O)C(=O)O)cc3)nc2c(=O)[nH]1` (stereo not drawn) [compound 6], the “fold changes relative to vehicle control” value came to 1.22 in assay [1] (HeLa, protein CUL1); 1.18 in assay [2] (HeLa, protein MCM2); 1.02 in assay [3] (protein PSMD13, HeLa); 0.89 in assay [4] (protein SART3, HeLa); 0.8 in assay [5] (HeLa, protein GEMIN8); 0.9 in assay [6] (protein ETFA, HeLa).
On to `NCCCNc1ccc(C(=O)NC(CCC(=O)O)C(=O)O)cc1` (stereo not drawn) [compound 7], for which the “fold changes relative to vehicle control” value in assay [1] (HeLa, protein CUL1) is reported as 1.02; in [2] (HeLa, protein MCM2), 0.88; in assay [3] (protein PSMD13, HeLa), 0.86; in assay [4] (protein SART3, HeLa), 0.94; in assay [5] (HeLa, protein GEMIN8) it was 0.86; in assay [6] (protein ETFA, HeLa), 0.87.
